Experimental data: ChEMBL document CHEMBL3751797, “Discovery of TRAF-2 and NCK-interacting kinase (TNIK) inhibitors by ligand-based virtual screening methods” (Medchemcomm, 2015)

Legend:
NCI-H1703 = test: Cytotoxicity against human NCI-H1703 cells transfected with lentiviral vector 7TFP assessed as cell viability at 10 uM after 72 hrs by ATPlite assay; format: cell-based; conditions: nci-h1703, 72 h
[1] = biological target: T1, TRAF2 and NCK-interacting protein kinase (Homo sapiens, UniProt Q9UKE5); test: Inhibition of recombinant TNIK (unknown origin) using LRRKtide as substrate at 10 uM after 1 hr in presence of 30 uM ATP
Target sequence in this assay (Q9UKE5 whole entry, looked up): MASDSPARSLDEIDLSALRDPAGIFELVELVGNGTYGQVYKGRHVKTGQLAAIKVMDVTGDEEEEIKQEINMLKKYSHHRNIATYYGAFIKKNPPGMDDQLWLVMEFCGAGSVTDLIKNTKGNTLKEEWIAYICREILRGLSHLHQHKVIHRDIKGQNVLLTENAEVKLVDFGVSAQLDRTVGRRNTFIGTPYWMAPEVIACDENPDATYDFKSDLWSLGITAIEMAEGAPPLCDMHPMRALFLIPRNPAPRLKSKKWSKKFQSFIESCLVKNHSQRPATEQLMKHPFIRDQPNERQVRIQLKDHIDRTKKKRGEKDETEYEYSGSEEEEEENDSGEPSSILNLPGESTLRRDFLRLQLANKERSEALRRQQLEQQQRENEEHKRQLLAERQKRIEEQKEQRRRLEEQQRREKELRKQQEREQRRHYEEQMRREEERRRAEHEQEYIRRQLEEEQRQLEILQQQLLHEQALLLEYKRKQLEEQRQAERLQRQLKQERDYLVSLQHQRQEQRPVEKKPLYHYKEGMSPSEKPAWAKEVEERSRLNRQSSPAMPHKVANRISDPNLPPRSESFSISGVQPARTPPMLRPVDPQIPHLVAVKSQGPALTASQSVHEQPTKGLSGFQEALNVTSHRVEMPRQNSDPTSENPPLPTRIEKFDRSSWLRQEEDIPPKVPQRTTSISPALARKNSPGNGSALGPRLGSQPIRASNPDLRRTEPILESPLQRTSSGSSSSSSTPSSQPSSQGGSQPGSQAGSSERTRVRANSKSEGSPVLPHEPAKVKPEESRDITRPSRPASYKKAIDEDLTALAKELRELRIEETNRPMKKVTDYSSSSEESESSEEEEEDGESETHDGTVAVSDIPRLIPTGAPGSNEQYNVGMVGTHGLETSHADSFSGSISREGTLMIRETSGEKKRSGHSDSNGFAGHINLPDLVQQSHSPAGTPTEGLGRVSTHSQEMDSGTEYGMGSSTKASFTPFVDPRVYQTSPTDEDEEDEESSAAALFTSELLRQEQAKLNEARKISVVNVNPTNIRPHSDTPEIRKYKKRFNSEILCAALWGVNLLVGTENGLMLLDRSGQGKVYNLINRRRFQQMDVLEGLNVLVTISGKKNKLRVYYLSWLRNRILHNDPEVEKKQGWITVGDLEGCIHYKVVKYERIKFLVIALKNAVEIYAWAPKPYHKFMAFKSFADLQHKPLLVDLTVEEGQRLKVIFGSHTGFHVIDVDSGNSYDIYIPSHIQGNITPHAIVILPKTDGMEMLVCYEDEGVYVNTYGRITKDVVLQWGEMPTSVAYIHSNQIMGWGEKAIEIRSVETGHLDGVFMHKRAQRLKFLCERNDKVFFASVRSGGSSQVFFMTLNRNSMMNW

[2] = biological target: T1, TRAF2 and NCK-interacting protein kinase; test: Inhibition of recombinant TNIK (unknown origin) using LRRKtide as substrate after 1 hr in presence of 30 uM ATP
Target sequence in this assay (Q9UKE5 whole entry): as the sequence (Q9UKE5 whole entry, looked up) above

[3] = biological target: T1, TRAF2 and NCK-interacting protein kinase; test: Competitive inhibition of recombinant TNIK (unknown origin) using LRRKtide as substrate after 1 hr in presence of 3 uM ATP
Target sequence in this assay (Q9UKE5 whole entry): as the sequence (Q9UKE5 whole entry, looked up) above

[4] = biological target: T1, TRAF2 and NCK-interacting protein kinase; test: Competitive inhibition of recombinant TNIK (unknown origin) using LRRKtide as substrate after 1 hr in presence of 30 uM ATP
Target sequence in this assay (Q9UKE5 whole entry): as the sequence (Q9UKE5 whole entry, looked up) above

[5] = biological target: T1, TRAF2 and NCK-interacting protein kinase; test: Competitive inhibition of recombinant TNIK (unknown origin) using LRRKtide as substrate after 1 hr in presence of 300 uM ATP
Target sequence in this assay (Q9UKE5 whole entry): as the sequence (Q9UKE5 whole entry, looked up) above

[6] = biological target: ALK tyrosine kinase receptor (Homo sapiens) (UniProt Q9UM73); test: Inhibition of human ALK using IGF-1Rtide as substrate at 10 uM after 2 hrs in presence of 30 uM ATP
[7] = biological target: T2, Aurora kinase A (Homo sapiens) (UniProt O14965); test: Inhibition of human AURA using kemptide as substrate at 10 uM after 1 hr in presence of 30 uM ATP
T2 sequence (whole entry): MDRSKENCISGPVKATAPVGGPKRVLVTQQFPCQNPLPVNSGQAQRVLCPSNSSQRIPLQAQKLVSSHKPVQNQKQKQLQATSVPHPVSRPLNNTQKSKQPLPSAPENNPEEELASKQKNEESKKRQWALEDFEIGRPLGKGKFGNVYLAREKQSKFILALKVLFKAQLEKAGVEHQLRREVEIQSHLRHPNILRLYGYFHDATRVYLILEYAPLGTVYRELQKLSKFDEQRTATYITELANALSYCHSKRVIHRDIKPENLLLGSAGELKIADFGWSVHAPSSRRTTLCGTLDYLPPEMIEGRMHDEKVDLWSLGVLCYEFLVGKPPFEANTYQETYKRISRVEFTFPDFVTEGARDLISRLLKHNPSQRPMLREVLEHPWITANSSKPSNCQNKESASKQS

[8] = biological target: Tyrosine-protein kinase BTK (Homo sapiens) (UniProt Q06187); test: Inhibition of human BTK using srctide as substrate at 10 uM after 1 hr in presence of 30 uM ATP
[9] = biological target: Epidermal growth factor receptor (Homo sapiens) (UniProt P00533); test: Inhibition of human EGFR using srctide as substrate at 10 uM after 1 hr in presence of 30 uM ATP
[10] = biological target: Fibroblast growth factor receptor 1 (Homo sapiens) (UniProt P11362); test: Inhibition of human FGFR1 using IGF-1Rtide as substrate at 10 uM after 1 hr in presence of 30 uM ATP
[11] = biological target: Fibroblast growth factor receptor 2 (Homo sapiens) (UniProt P21802); test: Inhibition of human FGFR2 using IGF-1Rtide as substrate at 10 uM after 1 hr in presence of 30 uM ATP
[12] = biological target: Receptor-type tyrosine-protein kinase FLT3 (Homo sapiens) (UniProt P36888); test: Inhibition of human FLT3 using srctide as substrate at 10 uM after 1 hr in presence of 30 uM ATP
[13] = biological target: Glycogen synthase kinase-3 (Homo sapiens) (UniProt P49840+P49841); test: Inhibition of human GSK3 using GSM as substrate at 10 uM after 1.5 hrs in presence of 30 uM ATP; format: protein assay
[14] = biological target: Insulin-like growth factor 1 receptor (Homo sapiens) (UniProt P08069); test: Inhibition of human IGF1R at 10 uM in presence of 30 uM ATP
[15] = biological target: Tyrosine-protein kinase JAK2 (Homo sapiens) (UniProt O60674); test: Inhibition of human JAK2 using IGF-1Rtide as substrate at 10 uM after 1 hr in presence of 30 uM ATP
[16] = biological target: Vascular endothelial growth factor receptor 2 (Homo sapiens) (UniProt P35968); test: Inhibition of human KDR using srctide as substrate at 10 uM after 1 hr in presence of 30 uM ATP
[17] = biological target: Platelet-derived growth factor receptor beta (Homo sapiens) (UniProt P09619); test: Inhibition of human PDGFRbeta using srctide as substrate at 10 uM after 1 hr in presence of 30 uM ATP
[18] = biological target: Phosphatidylinositol 4,5-bisphosphate 3-kinase catalytic subunit alpha isoform (Homo sapiens) (UniProt P42336); test: Inhibition of human PI3Kalpha using PIP2 as substrate at 10 uM after 1 hr in presence of 30 uM ATP
[19] = biological target: Serine/threonine-protein kinase pim-1 (Homo sapiens) (UniProt P11309); test: Inhibition of human PIM1 using S6K as substrate at 10 uM after 1 hr in presence of 30 uM ATP
[20] = biological target: Tyrosine-protein kinase SYK (Homo sapiens) (UniProt P43405); test: Inhibition of human SYK using srctide as substrate at 10 uM after 1 hr in presence of 30 uM ATP

Chain of Fibroblast growth factor receptor 1 (Homo sapiens) (P11362 22-822 limits assumed): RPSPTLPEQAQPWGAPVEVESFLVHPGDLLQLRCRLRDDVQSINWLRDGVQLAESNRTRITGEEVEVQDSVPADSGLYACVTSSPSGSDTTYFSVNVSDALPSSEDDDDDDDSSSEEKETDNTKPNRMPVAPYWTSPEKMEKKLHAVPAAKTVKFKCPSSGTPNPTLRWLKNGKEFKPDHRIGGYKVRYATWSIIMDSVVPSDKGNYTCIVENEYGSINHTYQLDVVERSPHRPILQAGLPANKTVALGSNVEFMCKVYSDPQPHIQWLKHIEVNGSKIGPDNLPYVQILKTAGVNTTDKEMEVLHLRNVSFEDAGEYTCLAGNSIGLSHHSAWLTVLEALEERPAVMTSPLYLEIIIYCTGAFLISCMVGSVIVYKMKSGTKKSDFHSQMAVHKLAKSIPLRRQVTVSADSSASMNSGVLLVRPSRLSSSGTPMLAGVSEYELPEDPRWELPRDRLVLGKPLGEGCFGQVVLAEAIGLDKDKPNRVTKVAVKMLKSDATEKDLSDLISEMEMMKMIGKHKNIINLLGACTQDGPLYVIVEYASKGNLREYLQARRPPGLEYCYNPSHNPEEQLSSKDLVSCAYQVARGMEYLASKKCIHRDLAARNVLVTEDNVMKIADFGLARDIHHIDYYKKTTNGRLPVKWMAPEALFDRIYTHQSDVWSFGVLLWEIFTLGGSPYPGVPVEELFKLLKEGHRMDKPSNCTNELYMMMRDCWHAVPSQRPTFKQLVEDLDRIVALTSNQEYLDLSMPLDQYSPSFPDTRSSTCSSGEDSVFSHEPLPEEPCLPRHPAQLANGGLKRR
Chain of Serine/threonine-protein kinase pim-1 (Homo sapiens) (P11309 whole entry, looked up): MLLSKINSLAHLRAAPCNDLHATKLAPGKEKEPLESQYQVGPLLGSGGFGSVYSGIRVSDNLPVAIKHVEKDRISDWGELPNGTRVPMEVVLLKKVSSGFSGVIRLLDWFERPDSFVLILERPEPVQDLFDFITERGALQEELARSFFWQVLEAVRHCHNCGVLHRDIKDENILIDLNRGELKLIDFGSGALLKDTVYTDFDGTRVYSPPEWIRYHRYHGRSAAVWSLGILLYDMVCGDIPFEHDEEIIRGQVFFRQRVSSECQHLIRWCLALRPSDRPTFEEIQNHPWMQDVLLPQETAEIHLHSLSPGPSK
Chain of Insulin-like growth factor 1 receptor (Homo sapiens) (P08069 31-736 limits assumed): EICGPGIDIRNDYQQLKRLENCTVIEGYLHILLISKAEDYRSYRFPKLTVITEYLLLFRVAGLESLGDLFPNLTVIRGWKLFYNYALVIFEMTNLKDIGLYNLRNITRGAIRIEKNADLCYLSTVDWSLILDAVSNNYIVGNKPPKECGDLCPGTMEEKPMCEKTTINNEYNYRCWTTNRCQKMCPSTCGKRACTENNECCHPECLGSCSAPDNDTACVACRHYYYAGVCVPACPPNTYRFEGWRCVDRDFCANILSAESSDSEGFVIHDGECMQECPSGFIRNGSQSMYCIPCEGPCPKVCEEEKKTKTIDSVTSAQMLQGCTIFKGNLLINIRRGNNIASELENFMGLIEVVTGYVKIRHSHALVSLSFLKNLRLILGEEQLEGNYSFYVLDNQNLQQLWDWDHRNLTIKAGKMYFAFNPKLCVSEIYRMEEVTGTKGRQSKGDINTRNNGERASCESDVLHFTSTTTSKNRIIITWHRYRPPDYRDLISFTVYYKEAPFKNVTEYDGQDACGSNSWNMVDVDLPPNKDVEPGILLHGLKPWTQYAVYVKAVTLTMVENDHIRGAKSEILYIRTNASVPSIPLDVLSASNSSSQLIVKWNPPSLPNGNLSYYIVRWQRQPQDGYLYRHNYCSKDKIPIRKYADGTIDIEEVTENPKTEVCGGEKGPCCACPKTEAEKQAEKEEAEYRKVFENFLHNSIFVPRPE
Chain of Insulin-like growth factor 1 receptor (Homo sapiens) (P08069 741-1367 limits assumed): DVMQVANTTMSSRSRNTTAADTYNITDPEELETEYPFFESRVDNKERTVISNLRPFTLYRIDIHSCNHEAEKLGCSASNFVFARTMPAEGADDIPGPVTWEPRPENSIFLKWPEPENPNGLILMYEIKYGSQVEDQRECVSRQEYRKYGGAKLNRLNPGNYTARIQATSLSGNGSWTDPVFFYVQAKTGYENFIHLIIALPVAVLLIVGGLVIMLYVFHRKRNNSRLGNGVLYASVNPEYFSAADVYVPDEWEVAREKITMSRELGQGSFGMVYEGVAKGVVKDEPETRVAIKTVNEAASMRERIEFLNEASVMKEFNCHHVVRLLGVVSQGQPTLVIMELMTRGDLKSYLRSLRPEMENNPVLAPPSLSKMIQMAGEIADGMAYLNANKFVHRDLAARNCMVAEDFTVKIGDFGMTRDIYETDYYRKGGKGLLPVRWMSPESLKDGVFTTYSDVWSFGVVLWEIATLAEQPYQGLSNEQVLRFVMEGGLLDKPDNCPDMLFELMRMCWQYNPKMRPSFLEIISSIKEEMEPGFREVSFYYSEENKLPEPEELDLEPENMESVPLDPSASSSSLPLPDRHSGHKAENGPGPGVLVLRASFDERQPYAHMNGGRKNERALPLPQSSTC
Chain of Glycogen synthase kinase-3 (Homo sapiens) (P49840 whole entry, looked up): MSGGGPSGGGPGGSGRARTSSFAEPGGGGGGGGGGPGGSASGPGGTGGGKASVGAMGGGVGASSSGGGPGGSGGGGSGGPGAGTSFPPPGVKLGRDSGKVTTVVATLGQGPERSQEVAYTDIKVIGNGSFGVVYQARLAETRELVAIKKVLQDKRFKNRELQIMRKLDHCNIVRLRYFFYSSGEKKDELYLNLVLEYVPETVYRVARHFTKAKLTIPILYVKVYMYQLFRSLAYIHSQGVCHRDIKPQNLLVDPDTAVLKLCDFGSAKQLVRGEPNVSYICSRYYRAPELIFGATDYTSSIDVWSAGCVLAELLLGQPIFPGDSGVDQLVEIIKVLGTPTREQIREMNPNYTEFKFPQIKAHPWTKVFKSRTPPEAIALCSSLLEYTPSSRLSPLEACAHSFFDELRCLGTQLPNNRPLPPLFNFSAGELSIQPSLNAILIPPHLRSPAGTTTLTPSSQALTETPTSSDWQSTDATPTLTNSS
Chain of Glycogen synthase kinase-3 (Homo sapiens) (P49841 whole entry, looked up): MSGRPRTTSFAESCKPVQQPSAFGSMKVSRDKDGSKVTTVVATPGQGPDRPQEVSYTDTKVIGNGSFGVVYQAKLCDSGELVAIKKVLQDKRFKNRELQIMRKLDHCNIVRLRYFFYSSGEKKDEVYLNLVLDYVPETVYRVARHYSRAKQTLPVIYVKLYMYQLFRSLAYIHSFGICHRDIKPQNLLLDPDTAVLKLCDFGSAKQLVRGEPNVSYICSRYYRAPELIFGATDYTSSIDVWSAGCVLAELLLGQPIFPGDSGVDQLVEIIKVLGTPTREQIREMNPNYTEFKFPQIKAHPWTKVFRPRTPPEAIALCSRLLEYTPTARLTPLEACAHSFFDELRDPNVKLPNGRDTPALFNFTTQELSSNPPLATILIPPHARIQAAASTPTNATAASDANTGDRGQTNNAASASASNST

In the case of `O=C1[C@H](Cc2ccc(O)cc2)N2C(=O)CCN(C(=O)NCc3ccccc3)[C@H]2CN1Cc1cccc2ccccc12`, the Activity (NCI-H1703) is reported as “Non-toxic”.
`Cc1cc(C(=O)Nc2cccc(S(=O)(=O)N3CCOCC3)c2)sc1-c1ccccc1` showed an inhibition [1] of -4.9%.
In the case of `CC(C)(C)c1ccc(/C=C/C(=O)Nc2ccccc2C(N)=O)cc1`, the inhibition [1] is reported as 63% and the IC50 [2] is reported as 2.74 µM.
`O=C(Nc1ccc(Br)cc1)Nc1ccc(CN2CCCC2)cc1` was tested, and the inhibition [1] was 72% and the IC50 [2] was 3.51 µM.
`Cc1cc([N+](=O)[O-])ccc1-c1ccc(C(=O)Nc2cccc(Cl)c2N2CCOCC2)o1` gave an inhibition [1] of 22.3%.
In the case of `Cc1ccc(NC=C2C(=O)c3ccccc3C2=O)cc1C`, the inhibition [1] is reported as 43%.
With `CN1CCN(c2ccc3nc(-c4c(N)c5c(F)cccc5[nH]c4=O)[nH]c3c2)CC1` [DOVITINIB] the Activity (NCI-H1703) was “Toxic”.
Compound `COc1ccc(C(=O)/C=C/Nc2ccc(C)c(C)c2)cc1` has an inhibition [1] of 32%.
For `O=C(NNC(=O)c1cc2ccccc2cc1O)NC1CCCCC1`, the inhibition [1] was 42%.
Compound `Cc1cc(C(=O)Nc2ccc(C(=O)N3CCOCC3)cc2)sc1-c1ccccc1` has an inhibition [1] of 60.4%.
`O=C(Nc1nnc(/C=C/c2ccccc2)s1)c1ccco1` showed an inhibition [1] of 70% and an IC50 [2] of 3.57 µM.
For `CN(C)c1ccc(NC(=O)c2cc3ccccc3o2)cc1`, the inhibition [1] was 39%.
In the case of `O=C(Nc1cccc(NC(=O)c2ccc(Cl)cc2Cl)c1)c1ccc(-c2cccc([N+](=O)[O-])c2)o1`, the inhibition [1] is reported as 16.8%.
With `CC(C)C(=O)Nc1cccc(NC(=O)c2ccc(-c3ccc(Cl)cc3)o2)c1` the inhibition [1] was 4.1%.
In the case of `O=C(Nc1ccccc1Cl)c1ccc(-c2ccc(Cl)cc2)o1`, the inhibition [1] is reported as 18.7%.
In the case of `O=C(Nc1cc(Cl)cc(Cl)c1)c1ccc(-c2ccc([N+](=O)[O-])cc2)o1`, the inhibition [1] is reported as 8.9%.
For `Cc1cc([N+](=O)[O-])ccc1NC(=O)c1ccc(-c2cccc(Cl)c2Cl)o1`, the inhibition [1] was 4.9%.
With `Cc1ccccc1C(=O)N1CCN(c2ccc(NC(=O)c3ccc(-c4ccc(Cl)cc4)o3)cc2)CC1` the inhibition [1] was 12.9%.
With `Cc1cc(C(=O)Nc2ccccc2C(N)=O)sc1-c1ccccc1` the inhibition [1] was 61.7%.
`Cc1ccc(-c2cc(C(=O)Nc3ccncc3)no2)cc1` gave an inhibition [1] of 40%.
`CN1CCN(c2ccc(NC(=O)c3cccc(Cl)c3)cc2)CC1` was tested, and the inhibition [1] was 45%.
`CC[C@@H]1CCc2c(sc(NC(=O)Nc3ccccc3)c2C(N)=O)C1` gave an inhibition [1] of 79% and an IC50 [2] of 10.3 µM.
`CN1CCN(c2ccc(NC(=O)c3ccc(-c4cc(Cl)ccc4Cl)o3)cc2)CC1` showed an inhibition [1] of 94%, an IC50 [2] of 0.85 µM and an IC50 [3] of 394 nM. For the same compound, the IC50 [4] was 849 nM, the IC50 [5] was 6.18 µM and the inhibition [6] was 17.4%. The inhibition [7] was 19.5%, the inhibition [8] was 4.3% and the inhibition [9] was 9.3%. The inhibition [10] was 21.6%, the inhibition [11] was 54.8% and the inhibition [12] was 93.8%. For the same compound, the inhibition [13] was 20.7%, the inhibition [14] was 3.4% and the inhibition [15] was 3.5%. It also gave an inhibition [16] of 64.9%, an inhibition [17] of 75.7% and an inhibition [18] of 11.7%. The inhibition [19] was 46.9%, the inhibition [20] was 34.9% and the Activity (NCI-H1703) was “Non-toxic”.
In the case of `Cc1c(Cl)cccc1-c1ccc(C(=O)Nc2ccc(S(N)(=O)=O)cc2)o1`, the inhibition [1] is reported as 76.4%, the IC50 [2] is reported as 0.26 µM and the inhibition [6] is reported as 18.4%. For the same compound, the inhibition [7] was 17.4%, the inhibition [8] was -2.3% and the inhibition [9] was 51.7%. For the same compound, the inhibition [10] was 5.2%, the inhibition [11] was 32.4% and the inhibition [12] was 27%. For the same compound, the inhibition [13] was 17.3%, the inhibition [14] was 7.7% and the inhibition [15] was 23.7%. For the same compound, the inhibition [16] was 0.1%, the inhibition [17] was 13.8% and the inhibition [19] was 24%. For the same compound, the inhibition [20] was 15.3% and the Activity (NCI-H1703) was “Non-toxic”.
`CC(=O)Nc1ccc(NC(=O)c2ccc(-c3ccc(Cl)c(Cl)c3)o2)cc1` was tested, and the inhibition [1] was 23.1%.
Compound `CCC(=O)N1CCN(c2ccc(NC(=O)c3cc4ccccc4o3)cc2)CC1` has an inhibition [1] of 46%.
`CNS(=O)(=O)c1ccc(NC(=O)c2cc(C)c(-c3ccccc3)s2)cc1` showed an inhibition [1] of 72.8%.
